Measurements reported in patent US9956197B2 (priority 2013, dated 2018).
Marks after values point to notes of the source that are not given here.

Columns and labels:
[1] = system: Picrotoxin (PIC) induced clonic seizure; test: animal or person; assay type: in vivo, ICR mice
[2] = system: ACTH-refractory infantile spasm (behavioral spasms); test: animal or person; assay type: in vivo, Sprague-Dawley rats; details: for inhibition in vivo at 60 mg/kg: read-out: ACTH-refractory IS (ip) Protection %, percentage of activity compared to the vehicle only; for ACTH-refractory IS (ip) Peak Time: rat, in vivo
[3] = system: Lithium-pilocarpine induced status epilepticus; set-up: species or system Sprague-Dawley rats; details: in vivo
[4] = system: PTZ (Pentylenetetrazol) induced clonic seizure; test: animal or person; assay type: in vivo, ICR mice; details: mouse, in vivo
[5] = system: Lithium-pilocarpine induced status epilepticus; set-up: species or system Sprague-Dawley rats; details: in vivo; remark: listed apart in the source
[6] = system: 6 Hz-induced seizure; test: animal or person; assay type: in vivo, mice; details: ip
[7] = system: PTZ (Pentylenetetrazol) induced clonic seizure; set-up: species or system SD rats; details: rat, in vivo
[8] = Mus musculus, ip, read-out: PIC (ip) percentage of activity compared to the vehicle only

Compound	PIC (ip) percentage of activity compared to the vehicle only ([1]; mice, injection amount 50 mg/kg)	inhibition in vivo at 60 mg/kg ([2]; Rattus norvegicus, ip)	ACTH-refractory IS (ip) Peak Time [2]	Intervention (rat, iv) Protection % [3]	PTZ test (ip) in Mice Protection % [4]	Prevention (rat, ip) Peak Time [5]	ED50 ([1]; Mus musculus, ip, read-out: PIC (ip) ED50)	PIC (ip) Peak Time ([1]; mice)	ED50 ([2]; Rattus norvegicus, ip, read-out: ACTH-refractory IS (ip) ED50)	ED50 ([6]; Mus musculus, read-out: 6 Hz ED50, 44 mA)	6 Hz Peak Time ([6]; mouse, in vivo)	PTZ test (ip) in Mice Peak Time [4]	responders at 50 mg/kg [1, 8]	PTZ test (ip) in Rats Protection % [7]	PTZ test (ip) in Rats Peak Time [7]	responders at 60 mg/kg [1, 8]	responders at 10 mg/kg [1, 8]
C[C@H](OC(N)=O)[C@@H](O)c1ccccc1I [Compound 65, 1-(2-iodophenyl)-(S)-1-hydroxypropyl-(S)-2-carbamate]	50^a (100%)	92.1%	3 h	^a46 (100%)	^a20.4 (100%)	2 h											
C[C@H](OC(N)=O)[C@@H](O)c1ccccc1Cl [Compound 1, 1-(2-chlorophenyl)-(S)-1-hydroxypropyl-(S)-2-carbamate]			1 h			2 h	18.2 mg/kg	2 h	19.8 mg/kg	13.7 mg/kg	0.25 h	2 h					
CC[C@H](OC(N)=O)[C@@H](O)c1ccccc1I [Compound 67, 1-(2-iodophenyl)-(S)-1-hydroxybutyl-(S)-2-carbamate]		81.1%	2 h	^a46 (100%)		0.5 h						0.5 h	83.3%	^b30 (33.3%)			
C[C@@H](OC(N)=O)[C@H](O)c1ccccc1Cl [Compound 2, 1-(2-chlorophenyl)-(R)-1-hydroxypropyl-(R)-2-carbamate]		65.9%	1 h	^a46 (50%)		0.5 h						0.5 h	16.7%		51.9 (*1) h		
C[C@H](OC(N)=O)[C@@H](O)c1ccccc1F [Compound 63, 1-(2-fluorophenyl)-(S)-1-hydroxypropyl-(S)-2-carbamate]				^a46 (50%)		0.25 h										33.3%	
CC(OC(N)=O)C(O)c1ccccc1Cl (racemic) [Compound 3, 1-(2-chlorophenyl)-1-hydroxypropyl-2-carbamate]		34%	3 h			0.5 h						0.5 h			18.9 (*0.5) h		50%
